As usually defined, the IC50 is the midpoint of a concentration-inhibition curve.

The values below come from patent US20240083921A1, “BORATE DERIVATIVE AND USES THEREOF” (Reistone Biopharma Company Limited, priority 2020, published 2024).

Assay [1] deals with IL-23 secretion of DC cells differentiated from human mononuclear cells. Briefly: In vitro inhibition of IL-23 secretion of DC cells differentiated from human mononuclear cells, Zymosan stimulation, ELISA. The class given is cell-based. To be noted: Table 3: inhibition of IL-23 secretion of DC cells, Zymosan 200 μg/ml, 24 hours. Here is the method:
Test Example 3 Experiment of in vitro Inhibition of IL-23 Secretion of DC Cells Differentiated from Human Mononuclear Cells by the Compounds
Day 0: Mononuclear cells were isolated from fresh human peripheral blood and purified and then resuspended in RPMI-1640 complete medium (RPMI-1640+10% FBS+1% P.S.+55 μM 2-Mercaptoethanol). When differentiating into DC cells, IL-4 at a concentration of 50 ng/ml and GM-CSF at 100 ng/ml were added to the medium. The cells were cultured at a density of 1×10^6 cells/mL in a culture dish with a diameter of 100 mm for differentiation in an incubator at 37° C. with a carbon dioxide concentration of 5%. Day 3: Half the volume of RPMI complete medium was replaced with fresh RPMI complete medium while maintaining the concentration of IL-4 at 50 ng/ml and GM-CSF at 100 ng/ml. Day 6: Non-adherent cells (DC cells) in the culture dish were collected and washed with PBS. The washed DC cells were resuspended with RPMI complete medium at a density of 1×10^6 cells/mL. Then. 1×10^5 DC cells were added to each well of the 96-well cell culture plate and pre-incubated with different dilutions of the compounds to be tested (or DMSO blank negative control at equivalent concentration) for 1 hour, followed by addition of 200 μg/ml of the TLR2 agonist Zymosan to stimulate the DC cells for 24 hours. Day 7: After 24 hours of Zymosan stimulation of DC cells. the supernatant in each well of the 96-well plate was collected and detected by ELISA for the concentration of IL-23.
The inhibition of IL-23 secretion of DC cells differentiated from human mononuclear cells by the compounds of the present disclosure was determined by the above test, and the determined IC50 value was shown in Table 3.
For orientation: An ELISA detects its analyte on a solid surface through an enzyme-linked reagent.

The target in another assay is PDE4B1 enzyme (Homo sapiens (Human), UniProt Q07343). Put plainly: In vitro PDE4B enzyme activity detection test (IMAP FP, FAM-cAMP substrate). As to conditions: PDE4B1 0.04 nM, FAM-cAMP 0.1 μM, 25° C. 30 min. It is filed as biochemical. The method, then:
Test Example 1 In vitro PDE4B Enzyme Activity Detection Test
1. Experimental Materials
First, a stock solution of the compound at a concentration of 10 mM was prepared in a test tube with 90% DMSO (10% water), and it was used to prepare a series of dilutions with a dilution factor of 1:5 and final concentrations starting from 100 μM to as low as 0.05 nM.
0.2 μl of the compound solution was transferred into a 384-well reaction plate, and 0.2 μl of 100% DMSO was transferred into both the negative and positive controls. Then, 10 μl of 2×PDE4B1 enzyme solution (making a final concentration of 0.04 nM) was added to each well, and 10 μl of 1×reaction buffer instead of the enzyme solution was added to the zero enzyme activity control wells. The plate was centrifuged at 1,000 rpm for 1 min and incubated at room temperature for 15 min. Next, 10 μl of 2×FAM-cAMP substrate solution (making a substrate final concentration of 0.1 μM) was added to each well of the 384-well reaction plate. The plate was centrifuged at 1,000 rpm for 1 min and the reaction was carried out at 25° C. for 30 min. After completion of the reaction, 60 μl of reaction stop solution was added to each well of the 384-well reaction plate to terminate the reaction, and the plate was incubated with shaking at 600 rpm on a shaker at room temperature in the dark for 60 min.
After the incubation, the RLU data were read and the inhibition rate was calculated. The IC50 value was calculated from the concentration-inhibition fitted curve, wherein the maximum value refers to the reading of the DMSO control and the minimum value refers to the reading of the zero enzyme activity control.
The in vitro inhibition of PDE4B1 enzyme activity by the Examples of the present disclosure was determined by the above test, and the measured IC50 value was shown in Table 1.

The subject of assay [2] is TNF-α release from peripheral blood mononuclear cells (PBMCs). Briefly: Inhibition of pro-inflammatory cytokine (TNF-α) release from LPS-stimulated PBMCs, ELISA. The class given is cell-based. To be noted: LPS 0.1 ng/ml, 24 hours. An excerpt: Test Example 2 Inhibitory Effect of Compounds on the Release of Pro-Inflammatory Cytokines from Peripheral Blood Mononuclear Cells (PBMCs)
Frozen PBMCs were thawed and detected by Trypan blue staining for cell viability and number. The thawed PBMCs were washed with RPMI1640 complete medium (RPMI1640+10% FBS+1% PS) and centrifuged, and the supernatant was discarded. The PBMCs were resuspended with RPMI1640 complete medium and the cell density was adjusted to 2×10^6 cells/mL. 2×10^5 PBMC cells were plated in a 96-well cell culture plate, and the compounds to be tested were added at different concentrations, in a 1:5 serial dilution of 9 concentrations starting from a maximum compound concentration of 100 μM, each in duplicate. LPS was added at a final concentration of 0.1 ng/ml, making a total volume of 200 μL. For the negative and positive controls, only LPS and DMSO were added to the negative control well, while 1 μg/mL of dexamethasone was added to the positive control well in addition to cells and LPS as. The cells were incubated in an incubator at 37° C. for 24 hours. After completion of the incubation, 100 μL of cell culture supernatant was collected and detected by ELISA for the TNF-α level. 100 μL of CellTiter-Glo was added to the remaining cells in each well to detect the cell viability level. The IC50 value of inhibition of TNF-α release by the compounds was calculated.
The in vitro inhibition of pro-inflammatory cytokine release of PBMCs by the Examples of the present disclosure was determined by the above test, and the determined IC50 value was shown in Table 2.

The test system of assay [3] is imiquimod-induced psoriasis mouse model. Put plainly: Suppression of imiquimod-induced psoriasis in mice (topical ointment). It is filed as in vivo, Balb/c female mice. As to conditions: for Ratio of spleen weight to body weight Mean / Total clinical score Mean / Erythema score Mean / Scale score Mean / Thickness score Mean: IMQ mice; for Ratio of spleen weight to body weight Mean: Day 7, percentage of spleen to body weight; for Total clinical score Mean: endpoint; for Erythema score Mean / Scale score Mean / Thickness score Mean: scale 0-4; for clinical score at the endpoint (statement): each dose of Compound 12-1; for clinical score at the endpoint (statement) / effect on the ratio of spleen weight to body weight (statement): versus model; for effect on the ratio of spleen weight to body weight (statement): three dose groups of Compound 12-1. An excerpt: Test Example 4 Experiment of Suppression of Imiquimod-Induced Psoriasis
An appropriate amount of Compound 12-1 was formulated into an ointment with the following components: 0.1% of Compound 12-1, 9% of hexanediol, 78.8% of white petrolatum, 5% of paraffin, 7% of glyceryl mono- and distearate, and 0.1% of […], which were mechanically stirred until an ointment was formed.
1) Model Establishment and Drug Administration
7-Week-old Balb/c female mice were used and the hair on their back in an area of 2 cm×3 cm was shaved the day before the experiment. On Days 1-7 of the experiment, the test compounds were applied on the skin for 6 hours, and then imiquimod (IMQ) ointment (Aldara (5%)) was continuously applied to the back skin of mice for 7 days, so as to establish a mouse model of psoriasis, while the control group was given the same dose of petrolatum ointment. On Days 3, 5 and 7, the severity of skin inflammation was assessed, including measurement of skin thickness, crusting and erythema, scored on a 5-point scale (0-4) respectively. The total score was used to assess the severity of skin inflammation. On Day 7 of the experiment, the spleen was collected and weighed, and the percentage of spleen to body weight was calculated to assess the immunosuppressive effect of the drug.
Normal control group, model control group, low, medium and high dose groups of Compound 12-1 (0.01%, 0.03% and 0.1%), 0.03% Compound 1-1 group, and 0.03% reference Compound A group were set up in this experiment.
The total score of the degree of skin inflammation was the clinical score, the indicators of which were relatively subjective, and higher score indicated more serious disease. The degree of increase in skin thickness was an objective assessment indicator, and more increase in thickness indicated more serious disease. The ratio of spleen weight to body weight was an objective assessment indicator, and smaller ratio of spleen weight to body weight indicated stronger immunosuppressive effect of the drug.

Setting [4] is: Compound A 0.03%, Compound 1-1 0.03%.

Like-named read-outs stand apart in the source and are kept apart here.

PDE4B1 enzyme, sequence (Q07343 whole entry): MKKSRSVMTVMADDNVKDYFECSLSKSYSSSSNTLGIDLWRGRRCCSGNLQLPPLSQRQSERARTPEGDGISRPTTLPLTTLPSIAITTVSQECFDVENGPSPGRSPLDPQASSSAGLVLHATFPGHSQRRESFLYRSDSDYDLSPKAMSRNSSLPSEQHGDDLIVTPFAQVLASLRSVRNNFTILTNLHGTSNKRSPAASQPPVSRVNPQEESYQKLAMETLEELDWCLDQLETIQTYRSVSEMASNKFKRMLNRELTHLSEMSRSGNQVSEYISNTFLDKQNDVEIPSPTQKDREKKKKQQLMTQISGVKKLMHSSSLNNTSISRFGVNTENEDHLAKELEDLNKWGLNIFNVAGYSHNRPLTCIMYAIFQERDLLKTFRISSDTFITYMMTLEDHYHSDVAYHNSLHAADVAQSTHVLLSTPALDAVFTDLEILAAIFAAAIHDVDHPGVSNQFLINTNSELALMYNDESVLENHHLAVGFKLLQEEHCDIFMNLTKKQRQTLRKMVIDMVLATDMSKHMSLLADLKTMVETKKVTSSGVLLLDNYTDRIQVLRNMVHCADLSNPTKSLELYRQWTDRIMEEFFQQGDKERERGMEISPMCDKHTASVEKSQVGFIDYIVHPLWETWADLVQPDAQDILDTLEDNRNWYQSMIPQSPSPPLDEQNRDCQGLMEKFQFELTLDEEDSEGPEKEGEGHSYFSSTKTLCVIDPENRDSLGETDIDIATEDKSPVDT

As for `COc1ccc(-c2cncc([C@@H]3COB(O)C3)c2)c2c1OC1(CCCC1)C2` [Compound 1-1], the IC50 in assay [1] (read-out: PBMC IC50) was determined as 0.12 nM. Also, the IC50 against PDE4B1 enzyme came out at 0.11 nM. Besides, the IC50 in assay [2] (read-out: PBMC IC50) is 0.32 nM. Moreover, in assay [3] (0.03% applied on skin), the “Ratio of spleen weight to body weight Mean” value (shortened to “Ratio … to body weight Mean”) is 0.63, the “Total clinical score Mean” value is 8.5, the “Erythema score Mean” value was found to be 3.63 and the “Scale score Mean” value worked out at 2.75. Moreover, the “Thickness score Mean” value in assay [3] (0.03% applied on skin) amounted to 2.13. The “single item scores (statement)” value in assay [3] (Compound 1-1 0.03%, each dose group of Compound 12-1) is “mainly improve scab and reduce skin thickness”. Further, in assay [3] (setting [4]), the “clinical score at the endpoint (statement)” value is “significantly reduce the clinical score” and the “effect on the ratio of spleen weight to body weight (statement)” value is on record as “significantly reduce the ratio of spleen weight to body weight”. The “effect on the ratio of spleen weight to body weight compared with Compound A” value in assay [3] (same dose (0.03%)) was “significantly different from that of Compound A”.

For `COc1ccc(-c2cncc([C@H]3COB(O)C3)c2)c2c1OC1(CCCC1)C2` [Compound 1-2], the IC50 stood at 0.4 nM against PDE4B1 enzyme and 3.26 nM in assay [2] (read-out: PBMC IC50).

As to `COc1ccc(-c2cncc(C3COB(O)C3)c2)c2c1OC(C)C2` (stereo not drawn) [Compound 2], inhibition on PDE4B1 enzyme was half-maximal at 4.5 nM (IC50).

In turn, `COc1ccc(-c2cccc(C3COB(O)C3)c2)c2c1OC1(CCCC1)C2` (stereo not drawn) [Compound 3] showed an IC50 against PDE4B1 enzyme of 1.1 nM.

As to `COc1ccc(-c2cncc(C3COB(O)C3)n2)c2c1OC1(CCCC1)C2` (stereo not drawn) [Compound 4], the half-maximal inhibitory concentration (IC50) turned out to be 0.083 nM on PDE4B1 enzyme and 2.15 nM in assay [2] (PBMC).

`COc1ccc(-c2cc(C3COB(O)C3)cnn2)c2c1OC1(CCCC1)C2` (stereo not drawn) [Compound 5] came in with an IC50 in assay [2] (PBMC) of 1.56 nM.

On to `COc1ccc(-c2cncc(C3COB(O)C3)c2)c2c1OC(C)(C)C2` (stereo not drawn) [Compound 6], for which the IC50 against PDE4B1 enzyme was determined as 0.41 nM; in assay [2] (PBMC) it was 1.56 nM.

As to `COc1ccc(-c2cncc(C3COB(O)C3)c2)c2cc(C(F)(F)F)nn12` (stereo not drawn) [Compound 7], the IC50 at PDE4B1 enzyme turned out to be 0.055 nM; in assay [2] (PBMC), 0.36 nM.

On to `COc1ccc(-c2cncc(C3COB(O)C3)c2)c2c1OC(C)(C)CO2` (stereo not drawn) [Compound 8], for which the IC50 in assay [2] (PBMC) came to 0.74 nM.

Turning to `COc1ccc(-c2cncc(C3COB(O)C3)c2)c2c1OC(C)(C)CC2` (stereo not drawn) [Compound 9], the IC50 on PDE4B1 enzyme came to 0.25 nM; in assay [2] (PBMC), 0.3 nM.

`COc1ccc(-c2cncc(C3COB(O)C3)c2)c2ccc(C(F)(F)F)nc12` (stereo not drawn) [Compound 10]: the IC50 against PDE4B1 enzyme was found to be 0.16 nM; in assay [2] (PBMC) it was 0.9 nM.

In turn, `COc1ccc(-c2cncc([C@@H]3COB(O)C3)n2)c2c1OC(C)(C)CC2` [Compound 12-1] came in with an IC50 in assay [1] (Homo sapiens, PBMC) of 0.018 nM. Also, in assay [2] (PBMC), the half-inhibitory concentration (IC50) is 0.055 nM. Also, in assay [3] (0.01% applied on skin), the “Ratio … to body weight Mean” value is listed as 0.64, the “Total clinical score Mean” value is given as 9.5, the “Erythema score Mean” value came out at 4 and the “Scale score Mean” value is given as 3.13. Besides, the “Thickness score Mean” value in assay [3] (0.01% applied on skin) was found to be 2.38. In addition, in assay [3] (0.03% applied on skin), the “Ratio … to body weight Mean” value stood at 0.43, the “Total clinical score Mean” value was determined as 7.57, the “Erythema score Mean” value came out at 3.86 and the “Scale score Mean” value is on record as 2.14. The “Thickness score Mean” value in assay [3] (0.03% applied on skin) came to 1.57. Further, in assay [3] (0.1% applied on skin), the “Ratio … to body weight Mean” value stood at 0.31, the “Total clinical score Mean” value is on record as 6.75, the “Erythema score Mean” value was 3.63 and the “Scale score Mean” value worked out at 1.38. Besides, the “Thickness score Mean” value in assay [3] (0.1% applied on skin) stood at 1.75.

On to `CCCOc1cc(-c2cncc([C@@H]3COB(O)C3)c2)ccc1OC` [Compound A, reference compound], for which, in assay [1] (Homo sapiens, PBMC), the IC50 amounted to 0.61 nM. Also, the concentration for half-maximal inhibition (IC50) at PDE4B1 enzyme is 0.3 nM. In assay [2] (PBMC), this compound gave an IC50 of 1.16 nM. Further, in assay [3] (0.03% applied on skin), the “Ratio … to body weight Mean” value was 0.96, the “Total clinical score Mean” value is given as 8.33, the “Erythema score Mean” value is on record as 3.33 and the “Scale score Mean” value is 2.5. For the same compound, the “Thickness score Mean” value in assay [3] (0.03% applied on skin) is reported as 2.5. In addition, in assay [3] (setting [4]), the “clinical score at the endpoint (statement)” value is “significantly reduce the clinical score” and the “effect on the ratio of spleen weight to body weight (statement)” value is reported as “no significant effect”. Besides, the “increase of skin thickness (statement)” value in assay [3] (low and high dose groups of Compound 12-1 (0.01%, 0.1%), Compound A 0.03%) is on record as “no significant effect”.

Consider `O=C(Nc1c(Cl)cncc1Cl)c1ccc(OC(F)F)c(OCC2CC2)c1` [Roflumilast, reference compound], for which, in assay [1] (Homo sapiens, PBMC), the IC50 was 12.9 nM.
